For 14 compounds, IC50 results are on record in patent US20250179059A1 (The Regents of the University of California, priority 2021, published 2025).

The experiment deals with T1, human BRD4 bromodomain II (Homo sapiens, UniProt O60885).
T1 construct: human BRD4 bromodomain II [based on Genbank NM_058243, residues 349-460]; host or cells: E. coli
Briefly: Bromodomain binding assay (AlphaScreen), BRD4 BDII. Conditions: AlphaScreen assay, Table C2; read-out: BRD4 BDII IC50. The method, then: Bromodomain Binding Assay
The bromodomain binding assay utilizes AlphaScreen technology. Compounds compete with a biotinylated peptide ligand (from histone H4: aa 1-21, K5/K8/K12/K16Ac-biotin) for binding to a hexahistidine (His6)-tagged bromodomain. Peptide binding is detected by fluorescence signal after singlet oxygen energy transfer from peptide-bound AlphaScreen streptavidin-coated donor beads to His6-tagged bromodomain-bound nickel-chelate acceptor beads (PerkinElmer). Briefly, 8 μL 2.5× bromodomain (E. coli expressed, N-terminal His6-tagged human BRD4 bromodomain II [based on Genbank NM_058243, residues 349-460] or N-terminal His6-tagged human BRD4 bromodomain I [residues 44-170]) in reaction buffer (50 mM HEPES [pH 7.5], 100 mM NaCl, 0.05% CHAPS, 0.1% BSA, 1% DMSO) is added to wells of an assay plate (384-well low flange white, flat bottom, polystyrene microplate, Corning #3572; buffer only is added to some wells as a negative control). A compound concentration series (10 concentrations, 3-fold serial dilutions previously prepared in 100% DMSO, or 100% DMSO only negative control) is delivered to the assay plate with an Echo 550 acoustic liquid handler (Labcyte), followed by plate centrifugation and incubation for 30 minutes at room temperature. Then 4 μL 5× biotinylated peptide ligand is added, followed by plate centrifugation and gentle shaking for 30 minutes at room temperature to mix. After this incubation, 4 μL 5× donor beads are added, and the plate is centrifuged, followed by brief gentle shaking to mix. Finally, 4 μL 5× acceptor beads are added, and the plate is centrifuged, followed by gentle shaking for 60 minutes at room temperature in the dark. AlphaScreen signal (excitation/emission: 680 nm/520-620 nm) is detected with an EnSpire multimode plate reader (PerkinElmer). Percentage peptide binding is plotted as a function of concentration, and curve fitting is used to determine competitive compound binding ICsos.
In general terms: In Alpha technology, singlet oxygen from a donor bead excites a nearby acceptor bead.

As a reminder, the IC50 is the midpoint of a concentration-inhibition curve. For the compound `O=C1CCCN1c1ccc(-c2cccc(-c3ccncc3)c2O)cc1Cl` [Example 213, 1-(3-Chloro-2′-hydroxy-3′-(pyridin-4-yl)-[1,1′-biphenyl]-4-yl)pyrrolidin-2-one 2,2,2-trifluoroacetate], the IC50 was 10 to 100 nM. Take `CC(=O)Nc1c(F)cc(-c2cccc(-c3cc(N4CCNCC4)no3)c2O)cc1F` [Example 86, N-(3,5-Difluoro-2′-hydroxy-3′-(3-(piperazin-1-yl)isoxazol-5-yl)-[1,1′-biphenyl]-4-yl)acetamide 2,2,2-trifluoroacetate]: the IC50 was in the range of 10 to 100 nM.

Consider `CC(=O)Nc1ccc(-c2cccc(-c3cccc(N4CC5CC4CN5)c3)c2O)cc1F` (centres unmarked) [Example 170, N-(3″-(2,5-diazabicyclo[2.2.1]heptan-2-yl)-3-fluoro-2′-hydroxy-[1,1:3′,1″-terphenyl]-4-yl)acetamide], for which the IC50 lay within 10 to 100 nM. To `CC(=O)Nc1ccc(-c2cccc(-c3cccc(N4C[C@@H]5CC[C@H]4CN5)c3)c2O)cc1F` [Example 183, N-(3″-((1S,4S)-2,5-diazabicyclo[2.2.2]octan-2-yl)-3-fluoro-2′-hydroxy-[1,1′:3′,1″-terphenyl]-4-yl)acetamide] belongs 10 to 100 nM.

Consider `CC(=O)Nc1ccc(-c2cccc(-c3ccc4[nH]ccc4c3)c2O)cc1F` [Example 123, N-(3-Fluoro-2′-hydroxy-3′-(1H-indol-5-yl)-[1,1′-biphenyl]-4-yl)acetamide], for which the 50% inhibitory concentration (IC50) was greater than 100 nM. On to `CC(=O)Nc1ccc(-c2cccc(-c3cc4ccccc4[nH]3)c2O)cc1F` [Example 156, N-(3-fluoro-2′-hydroxy-3′-(1H-indol-2-yl)-[1,1′-biphenyl]-4-yl)acetamide], for which the IC50 was greater than 100 nM. For the compound `CC(=O)Nc1ccc(-c2cccc(-c3cnn(C4CCN(C)CC4)c3)c2O)cc1` [Example 17, N-(2′-Hydroxy-3′-(1-(1-methylpiperidin-4-yl)-1H-pyrazol-4-yl)-[1,1′-biphenyl]-4-yl)acetamide], the IC50 is greater than 100 nM.

With `CC(=O)Nc1ccc(-c2cccc(-c3ccc(NC(C)=O)c(OC(C)C)c3)c2O)cc1F` [Example 87, N,N′-(3-Fluoro-2′-hydroxy-3″-isopropoxy-[1,1′:3′,1″-terphenyl]-4,4″-diyl)diacetamide], the IC50 was greater than 100 nM. Then `CC(=O)Nc1ccc(-c2cccc(-c3cc(N4CCNCC4)no3)c2O)cc1Cl` [Example 32, N-(3-Chloro-2′-hydroxy-3′-(3-(piperazin-1-yl)isoxazol-5-yl)-[1,1'-biphenyl]-4-yl)acetamide 2,2,2-trifluoroacetate], with 10 to 100 nM; and `CC(=O)N1CCc2cc(-c3cccc(-c4cc(N5CCNCC5)no4)c3O)ccc21` [Example 31, 1-(5-(2-Hydroxy-3-(3-(piperazin-1-yl)isoxazol-5-yl)phenyl)indolin-1-yl)ethanone 2,2,2-trifluoroacetate], with greater than 100 nM.

As for `CC(=O)Nc1ccc(-c2cccc(-c3ccc(NC(C)=O)nc3)c2O)cn1` [Example 40, N,N′-(5,5′-(2-Hydroxy-1,3-phenylene)bis(pyridine-5,2-diyl))diacetamide], the IC50 was greater than 100 nM. Then `CC(=O)Nc1ccc(-c2cccc(-c3cccc(-c4nc[nH]n4)c3)c2O)cc1F` [Example 208, N-(3-fluoro-2′-hydroxy-3″-(1H-1,2,4-triazol-3-yl)-[1,1′:3′,1″-terphenyl]-4-yl)acetamide], with greater than 100 nM.

`CC(=O)Nc1ccc(-c2cccc(-c3cccc(N4CC5(CNC5)C4)c3)c2O)cc1F` [Example 219, N-(3-fluoro-2′-hydroxy-3″-(2,6-diazaspiro[3.3]heptan-2-yl)-[1,1′:3′,1″-terphenyl]-4-yl)acetamide]: the IC50 fell in the range of 10 to 100 nM. Then `CC(=O)Nc1ccc(-c2cccc(-c3ccc4c(c3)OCCN4C)c2O)cc1F` [Example 144, N-(3-fluoro-2′-hydroxy-3′-(4-methyl-3,4-dihydro-2H-benzo[b][1,4]oxazin-7-yl)-[1,1′-biphenyl]-4-yl)acetamide], with greater than 100 nM.
